Data taken from patent US20250386824A1, “COMPOSITION OF AN ORGANIC SULFIDE COMBINED WITH GLUCOSE AND USE THEREOF IN CONTROLLING MELON FUSARIUM WILT” (CH BIOTECH R&D CO., LTD., priority 2024, published 2025).

How the values were obtained:
melon's third leaf = test: Chlorophyll fluorescence photosynthesis: electron transport rate (ETR) of melon's third leaf after foliar spraying; settings: foliar spray, after 30 minutes of actinic light, mean ± SE, n=5
Experimental: In the following examples, a melon species Cucumis melo var. makuwa cv. Silver Light (Nongyou Seedling Co., Kaohsiung, Taiwan) is used as the test crop. Seeds of the test crop are stirred and rinsed in warm water at 65° C. for 20 minutes, then further stirred and rinsed with sterile water twice, each for 20 minutes, and then placed in a 25° C. incubator for germination for 48 hours. After the radicle has grown, the seedlings are sown in trays containing Sondermischung (perlite high) cultivating medium (Gramoflor, Germany). When the leaves are fully expanded, the seedlings are transplanted into 3.5-inch plastic pots (inner diameter: 9 cm) and continue planting. The melon plants are ready for following experiments when their first real leaves are fully expanded (the plant is about 7 days of age).
The compositions of 3% (w/v) glucose amended with 1% (w/v) an organic sulfide selected from allicin, dimethyl disulfide (DMDS), lipoic acid, methionine and taurine, with two hundred-fold and four hundred-fold dilution in water, are sprayed on the leaves of the melon seedlings, and the chlorophyll fluorescence photosynthesis of the third real leaf is investigated during the growing period of melons. […] The third real leaf of melon is clipped to measure the leaf chlorophyll fluorescence parameters. […]

[1] = system: Fusarium oxysporum f.sp. melonis; test: Greenhouse pot test: disease severity of melon Fusarium wilt after foliar spraying and root-cut inoculation; format: in vivo; settings: Example 1, FIG. 1: 3% (w/v) glucose + 1% (w/v) organic sulfide, 400-fold dilution, foliar spray at 7 and 14 days of age; 3 weeks after inoculation; untreated control 2.33±0.21; mean ± SE
Experimental: Preparation of the inoculation source of Fusarium oxysporum f.sp. melonis (FOM): the soil-borne pathogen FOM strain used in the example is isolated from diseased melon plants in Wufeng District, Taichung City (24°02′24.6 ″N 120°39′55.0 ″E). The single spores of the strain are independently cultured on potato dextrose agar (PDA; Difco®) medium plates in a 25° C. incubator with 12 hours of light exposure per day. The mycelial pieces of the FOM strain are inoculated into ½ potato dextrose broth (PDB) and incubated in shaking flasks for 14 days. After the incubation, the culture is filtered through a double-layer Miracloth (475855 Calbiochem, Merk Darmstadt, Germany) to obtain a spore suspension with a concentration of 10^5 spores/mL, which is ready to be used in the pathogenic infection of melon root.
At the 24 hours after the final spraying, the root of test melon plants is washed with water to remove the cultivating medium. […] After 3 weeks, the symptoms and severity of wilt disease in melon plants are observed and recorded. […]
The disease severity is calculated by the following formula, wherein si represents the severity of wilt disease; n; represents the number of plants with various severity, and N represents the total number of plants investigated.
Statistical Analysis. The results are analyzed using RStudio v.4.3.0 (R) software. […]

Compound | ETR (electron transport rate of PSII on third leaf of melon) (melon's third leaf; 200X dilution of 1% (w/v) organic sulfide with 3% (w/v) glucose) [μmol electrons m^−2 s^−1] | ETR (electron transport rate of PSII on third leaf of melon) (melon's third leaf; 400X dilution of 1% (w/v) organic sulfide with 3% (w/v) glucose) [μmol electrons m^−2 s^−1] | Disease severity of melon Fusarium wilt (scale 0-4) [1]
CSSC [DMDS, dimethyl disulfide] | 110.24 ± 2.72 | 117.68 ± 3.83 | 1.83±0.25
NCCS(=O)(=O)O [Taurine, 2-aminoethanesulfonic acid] |  |  | 2.00±0.18
